According to patent publication US20250326725A1, “PI4-Kinase Inhibitors and Methods of Using the Same” (The Board of Trustees of the Leland Stanford Junior …, priority 2019, published 2025):
“And” between values parts separate entries of the source, which are not always exact repeats. Equal values may be shown once. Read-outs that look alike come from different tables or passages of the source.

Key:
HCV = assay: Anti-HCV assay (EC50); format: cell-based; conditions: Hepatitis C virus, read-out: HCV EC50
Protocol: Anti-HCV assay: Anti-HCV assays are performed as described by Cho et al. “Identification of a class of HCV inhibitors directed against the nonstructural protein NS4B.” Sci. Transl. Med. 2011; 2(15):15ra6.

HRV = assay: Rhinovirus antiviral assay (EC50); format: cell-based; conditions: Human rhinovirus sp.
EV71 = EV71 antiviral assay (EC50); format: cell-based, Enterovirus 71
EV68 = EV68 antiviral assay (EC50); format: cell-based
[1] = Cell toxicity (CC50) in HRV assay; conditions: human, HRV CC50
HeLa S3 cells = assay: Cell toxicity (CC50) in HRV assay; conditions: human
[2] = Cell toxicity (CC50) in EV71 assay; conditions: EV71 CC50
[3] = Cell toxicity (CC50) in EV68 assay; conditions: EV68 CC50
cells (EV71 assay) = assay: Cell toxicity (CC50) in EV71 assay
cells (EV68 assay) = assay: Cell toxicity (CC50) in EV68 assay
[4] = Microsomal stability, human liver microsomes; format: in vitro ADME
[5] = Microsomal stability, mouse liver microsomes; format: in vitro ADME
[6] = Caco-2 permeability assay; format: in vitro ADME; conditions: human, read-out: Caco2 Papp × 1e−6 cm/s
Protocol: Compounds of interest were tested in a variety of cell-based assays for antiviral activity.

PI4KIIIalpha = target: T1, PI4KIIIalpha (Homo sapiens, UniProt P42356); assay: PI-kinase assay, PI4KIIIalpha (Table 4); format: biochemical
T1 construct: made in house; host or cells: COS-7 cells, transient transfection, anti-HA immunoprecipitate on protein G Sepharose beads
T1 sequence (P42356 whole entry): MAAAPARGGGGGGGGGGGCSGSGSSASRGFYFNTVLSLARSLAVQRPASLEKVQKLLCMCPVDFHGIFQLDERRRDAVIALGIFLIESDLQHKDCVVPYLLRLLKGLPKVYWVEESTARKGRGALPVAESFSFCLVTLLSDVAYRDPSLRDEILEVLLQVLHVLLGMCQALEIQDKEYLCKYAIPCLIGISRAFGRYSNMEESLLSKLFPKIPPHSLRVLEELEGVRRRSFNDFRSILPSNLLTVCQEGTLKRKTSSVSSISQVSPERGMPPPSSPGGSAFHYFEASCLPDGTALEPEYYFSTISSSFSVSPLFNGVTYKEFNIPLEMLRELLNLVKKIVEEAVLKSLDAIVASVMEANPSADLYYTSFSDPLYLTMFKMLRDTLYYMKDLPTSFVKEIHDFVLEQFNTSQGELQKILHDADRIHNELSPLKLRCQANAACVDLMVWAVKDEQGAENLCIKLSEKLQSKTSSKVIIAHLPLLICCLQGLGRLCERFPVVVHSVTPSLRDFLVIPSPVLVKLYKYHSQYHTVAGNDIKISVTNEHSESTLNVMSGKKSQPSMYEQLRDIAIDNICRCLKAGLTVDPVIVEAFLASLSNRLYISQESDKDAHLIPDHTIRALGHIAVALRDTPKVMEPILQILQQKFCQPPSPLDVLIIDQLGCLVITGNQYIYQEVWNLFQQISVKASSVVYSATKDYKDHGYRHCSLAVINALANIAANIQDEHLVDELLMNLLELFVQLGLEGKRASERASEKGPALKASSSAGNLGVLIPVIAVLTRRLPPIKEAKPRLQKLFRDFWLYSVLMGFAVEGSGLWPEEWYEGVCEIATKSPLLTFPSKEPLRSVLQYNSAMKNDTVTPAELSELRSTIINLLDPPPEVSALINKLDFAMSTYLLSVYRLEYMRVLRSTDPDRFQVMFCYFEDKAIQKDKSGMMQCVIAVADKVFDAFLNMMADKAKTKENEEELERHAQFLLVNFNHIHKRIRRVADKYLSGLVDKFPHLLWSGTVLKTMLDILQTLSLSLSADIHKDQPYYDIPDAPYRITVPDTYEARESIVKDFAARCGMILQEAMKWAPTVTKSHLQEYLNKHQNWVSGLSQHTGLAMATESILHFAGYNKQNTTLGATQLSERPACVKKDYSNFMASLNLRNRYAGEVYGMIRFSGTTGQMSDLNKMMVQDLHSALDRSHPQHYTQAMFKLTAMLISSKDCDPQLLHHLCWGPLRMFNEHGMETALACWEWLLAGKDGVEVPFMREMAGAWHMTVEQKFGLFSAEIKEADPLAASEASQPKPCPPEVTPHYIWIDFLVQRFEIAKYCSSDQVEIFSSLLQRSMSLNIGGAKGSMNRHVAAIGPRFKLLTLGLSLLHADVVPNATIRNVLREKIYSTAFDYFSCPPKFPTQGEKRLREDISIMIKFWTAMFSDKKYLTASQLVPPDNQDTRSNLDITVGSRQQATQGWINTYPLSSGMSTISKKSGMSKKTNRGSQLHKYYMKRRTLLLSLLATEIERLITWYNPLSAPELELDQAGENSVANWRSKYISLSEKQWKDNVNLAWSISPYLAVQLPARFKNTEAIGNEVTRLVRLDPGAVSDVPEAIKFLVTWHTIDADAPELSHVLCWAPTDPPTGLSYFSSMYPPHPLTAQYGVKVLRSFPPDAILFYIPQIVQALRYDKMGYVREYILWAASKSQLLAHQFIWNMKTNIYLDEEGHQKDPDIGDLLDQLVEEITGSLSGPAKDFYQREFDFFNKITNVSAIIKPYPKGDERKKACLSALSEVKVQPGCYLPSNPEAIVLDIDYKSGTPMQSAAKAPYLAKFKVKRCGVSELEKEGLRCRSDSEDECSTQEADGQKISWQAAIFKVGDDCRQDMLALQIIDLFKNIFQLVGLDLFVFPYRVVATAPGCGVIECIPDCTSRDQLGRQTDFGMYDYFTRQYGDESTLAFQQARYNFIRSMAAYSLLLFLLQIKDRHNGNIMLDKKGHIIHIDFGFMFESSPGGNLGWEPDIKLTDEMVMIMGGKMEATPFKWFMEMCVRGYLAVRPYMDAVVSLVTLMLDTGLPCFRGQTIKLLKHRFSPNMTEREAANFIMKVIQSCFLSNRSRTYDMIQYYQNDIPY
Protocol: (§1) PI-kinase assay: Compounds are tested in C.1.1. PT kinase assays as described by Shokat et al., “A membrane capture assay for lipid kinase activity.” Nat. Protoc. 2007; 2(10):2459-66.
(§2) General methods of materials: In the assays described here, p110α-p85 complex and p110γ were acquired from Millipore. Assays were performed with La-phosphatidylinositol (Avanti) as described in Knight et al. Nat Protoc. 2007; 2 (10):2459-66. Inhibitor series were prepared 10% DMSO as 5× stocks for the assay. Assays of HsVps34 were performed as described in Knight et al, except that the final assay buffer composition used was changed to 20 mM HEPES 7.5, 100 mM NaCl, 3 mM MgCl, 1 mg/mL PI and 44 nM hvps34 was used in the assay. […] COS-7 cells were cultured in 10 cm dishes and transfected at 70% confluence with 10 μg of plasmid DNA (HA-tagged bovine PI4KIIIβ. HA-tagged human PI4KIIIα) using Lipofectamine 2000 and 5 ml Opti-MEM following the manufacturer's instructions. After 5 hours the transfection medium was replaced with 10 ml complete DMEM. 36 hrs post transfection, cells were washed once with 5 ml PBS (pH 7.4) and lysed in 1 ml of lysis buffer (1) on ice. Lysates were collected by scraping and after 15 min they were centrifuged at 13.000 rpm for 10 min. To the lysates was added 200 gi of protein G Sepharose 4 fast flow beads that were prewashed with PBS and lysis buffer and 2 sg of anti-HA antibody. The tubes were then incubated overnight at 4 degrees C. in a tube rotator. The Sepharose beads in the lysate were washed twice with 150 mM NaCl in RIPA buffer, twice with RIPA buffer and once with kinase buffer (50 mM Tris/HCl, pH 7.5, 20 mM MgCl2, 1 mM EFTA, 1 mM PtdIns, 0.4% Triton X-100, 0.5 mg/mL BSA) and finally the beads were resuspended in 200 μL kinase buffer. Kinase reactions were run in a mixture of 45 μL of PI buffer (1 mM P1 in kinase buffer), 10 μL of immunoprecipitated beads, 2 µL of inhibitors (dissolved and diluted in DMSO) or DMSO and 5 μL of [γ-^32P]-ATP (1 mM and 2 μCi/tube). The immunoprecipitates in PI buffer were pre-incubated with the drugs for 20 min prior the initiation of kinase reaction by adding ATP and the reactions were carried out for 30 min in 15 ml polyproplyene tubes. Reactions were terminated by addition of 3 ml of CHCl3:CH3OH:HCl (200:100:0.75) followed by 0.6 ml of 0.61N HCl to induce phase separation. The mixtures were vortexed, centrifuged at 2000 rpm for 2 min and the upper phase was discarded. To the lower phase was added 1.5 ml of CHCl3:CH3OH:0.6N HCl (3:48:47) and the mixture vortexed and centrifuged at 2000 rpm for 2 ruin. The lower phase was then transferred to counting vials and evaporated. Samples were counted in a scintillation beta counter after adding 5 ml of Instafluor (Perkin-Elmer).
(§3) Selected compounds of Tables 1-3 were prepared and tested for inhibition activity in a variety of kinase assays.

PI4KIIIbeta = target: T2, PI4KIIIbeta (Bos taurus, UniProt O02810); assay: PI-kinase assay, PI4KIIIbeta (Table 4); format: biochemical, bovine
T2 construct: made in house; host or cells: COS-7 cells, transient transfection, anti-HA immunoprecipitate on protein G Sepharose beads
T2 sequence (O02810 whole entry): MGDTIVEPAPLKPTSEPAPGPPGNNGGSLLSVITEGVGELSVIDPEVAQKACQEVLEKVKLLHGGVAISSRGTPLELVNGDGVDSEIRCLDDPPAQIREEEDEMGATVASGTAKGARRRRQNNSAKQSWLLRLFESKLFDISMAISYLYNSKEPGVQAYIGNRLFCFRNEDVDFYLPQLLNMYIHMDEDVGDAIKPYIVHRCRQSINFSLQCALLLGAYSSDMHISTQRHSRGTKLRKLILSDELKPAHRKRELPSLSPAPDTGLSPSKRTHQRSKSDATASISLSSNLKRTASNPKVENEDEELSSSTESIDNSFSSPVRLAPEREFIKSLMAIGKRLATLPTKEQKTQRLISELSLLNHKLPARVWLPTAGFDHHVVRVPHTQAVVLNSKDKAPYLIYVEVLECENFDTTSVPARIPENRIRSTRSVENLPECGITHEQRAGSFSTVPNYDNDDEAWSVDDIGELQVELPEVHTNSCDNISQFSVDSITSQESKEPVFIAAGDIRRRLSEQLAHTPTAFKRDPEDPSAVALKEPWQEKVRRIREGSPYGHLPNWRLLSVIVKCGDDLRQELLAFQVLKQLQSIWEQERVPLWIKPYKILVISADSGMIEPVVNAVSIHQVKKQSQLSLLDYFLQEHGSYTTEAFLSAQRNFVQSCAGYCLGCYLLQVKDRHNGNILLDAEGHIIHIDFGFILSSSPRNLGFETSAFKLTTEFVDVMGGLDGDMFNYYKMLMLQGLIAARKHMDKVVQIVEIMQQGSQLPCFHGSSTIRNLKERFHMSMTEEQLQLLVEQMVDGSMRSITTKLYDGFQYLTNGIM
Protocol: as §1, §2, §3

[7] = read-out: HLM/MLM (t ½ min): HLM
[8] = read-out: HLM/MLM (t ½ min): MLM
[9] = with ritonavir (concentration not stated), + Ritonavir, read-out: HLM/MLM (t ½ min) + Ritonavir: MLM

Structure (SMILES) | EC50 (HCV) [µM] | EC50 (HRV) [µM] | EC50 (EV71; Enterovirus A, EV71) [µM] | EC50 (EV68) | CC50 [1] [µM] | CC50 (HeLa S3 cells) [µM] | CC50 [2] [µM] | CC50 [3] [µM] | EC50 (EV71) [µM] | CC50 (cells (EV71 assay)) [µM] | CC50 (cells (EV68 assay)) [µM] | HLM/MLM (t ½ min) + Ritonavir: HLM ([4]; + Ritonavir) | half-life [4, 7] [h] | half-life [5, 8] [h] | half-life [5, 9] [h] | Papp [6] [×10⁻⁶ cm/s] | IC50 (PI4KIIIalpha) [µM] | IC50 (PI4KIIIbeta) [µM] | half-life ([4]; with ritonavir (concentration not stated), + Ritonavir, read-out: HLM/MLM (t ½ min) + Ritonavir: HLM) [h]
COc1ccc(-c2sc(NC(C)(C)c3ccccc3)nc2C)cc1S(=O)(=O)NC1CCN(S(C)(=O)=O)CC1 [Compound S-57] | 0.0009 | 0.0009 | 0.0009 | 0.001 µM | 95.2 | 95 | 96.1 | 100 |  |  |  |  |  |  |  |  |  |  | 
COc1ccc(-c2sc(NC(C)(C)c3ccccc3)nc2C)cc1S(=O)(=O)Nc1ccc(O)cc1 [Compound S-38] | 0.0006 | 0.0002 |  |  |  |  |  |  |  |  |  |  |  |  |  |  |  |  | 
COc1ccc(-c2sc(N[C@H](C)c3ccccc3)nc2C)cc1S(=O)(=O)Nc1c(C)cccc1F [Compound S-75] |  | 0.022 | 0.006 | 0.013 µM | 100 |  | 100 | 100 |  |  |  |  |  |  |  |  |  |  | 
COc1ccc(-c2sc(NC3(C4CCOCC4)CC3)nc2C)cc1S(=O)(=O)Nc1ccc(Cl)cc1Cl [Compound S-14] | 0.0144 | 0.014 | 0.0104 | 33.3 µM and 33 µM | 36.4 | 36 | 37.2 | 39.4 | 0.01 | 37 | 39 |  |  |  |  |  |  |  | 
COc1ccc(-c2sc(NC(C)(C)C3CCCCC3)nc2C)cc1S(=O)(=O)Nc1c(C)cccc1F [Compound S-58] | 0.0225 | 0.022 | 0.0068 | 0.0135 µM and 0.013 µM | 100 |  | 100 | 100 | 0.006 |  |  |  |  |  |  |  |  |  | 
COc1ccc(-c2sc(NC(C)(C)c3cccnc3)nc2C)cc1S(=O)(=O)Nc1c(C)cccc1F [Compound S-39] | 0.0002 | 0.0002 | 0.0002 | 0.0008 µM | 47.7 | 47 | 99 | 19.9 |  | 99 | 19 | 159 min | 1.38 | 1.12 | 1.38 | 7.6 |  |  | 
COc1ccc(-c2sc(NC(C)(C)C3CCOCC3)nc2C)cc1S(=O)(=O)Nc1ccc(F)cc1Cl [Compound S-4] | 0.0013 | 0.0013 |  |  | 17.3 | 17 | 36.5 |  |  | 36 |  |  |  |  |  |  |  |  | 
COc1ccc(-c2sc(NC(C)(C)C3CCOCC3)nc2C)cc1S(=O)(=O)Nc1cccnc1C [Compound S-3] | 0.0005 | 0.0005 | 0.0005 | 0.0013 µM and 0.001 µM | 70.5 | 70 | 86.6 | 47.5 |  | 86 | 47 | 159/159 min | 0.967 | 0.967 | 2.65 | 7.42 |  |  | 
COc1ccc(-c2sc(NC(C)(C)c3ccccc3)nc2C)cc1S(=O)(=O)Nc1c(C)cccc1F [Compound S-32] | 0.0002 |  |  | 0.0006 µM and 0.0003 µM |  |  |  | 100 |  |  |  | 159 min | 0.283 | 0.367 | 2.22 | 0.04 | > 10 | < 0.1 | 
COc1ccc(-c2sc(N[C@@H](C)c3ccccc3)nc2C)cc1S(=O)(=O)Nc1c(C)cccc1F [Compound S-74] |  | 0.0009 | 0.0009 | 0.001 µM | 95 |  | 95 | 100 |  |  |  |  |  |  |  |  |  |  | 
COc1ccc(-c2sc(NC(C)(C)C3CCOCC3)nc2C)cc1S(=O)(=O)Nc1c(C)cccc1F [Compound S-1] | 0.005 | 0.0005 | 0.0002 | 0.0024 µM and 0.002 µM | 15 |  | 100 | 18.2 |  |  |  |  | 0.1 | 0.133 | 0.833 | 4 |  |  | 1.13
COc1ccc(-c2sc(NC(C)(C)C3CCOCC3)nc2C)cc1S(=O)(=O)Nc1c(C)ncnc1C [Compound S-17] | 0.0107 |  | 0.0037 | 0.0255 µM | 100 |  | 99.9 | 100 |  |  |  |  |  |  |  |  |  |  | 
COc1ccc(-c2sc(NC(C)(C)C3CCOCC3)nc2C)cc1S(=O)(=O)Nc1ccc(F)cc1C(F)F [Compound S-30] | 0.0112 |  | 0.0022 | 0.0592 µM | 3.79 |  | 20.2 | 6.45 |  |  |  |  |  |  |  |  |  |  | 
COc1ccc(-c2sc(NC3(C4CCOCC4)CC3)nc2C)cc1S(=O)(=O)Nc1cccnc1C [Compound S-16] | 0.683 |  | 0.568 | 2.1 µM | 38.3 |  | 21.2 | 39.2 |  |  |  |  |  |  |  |  |  |  | 
COc1ccc(-c2sc(NC(C)(C)C3CCOCC3)nc2C)cc1S(=O)(=O)Nc1c(C)cc(F)cc1F [Compound S-28] | 0.0049 |  | 0.0042 | 0.0091 µM | 87.4 |  | 100 | 77.6 |  |  |  |  |  |  |  |  |  |  | 
COc1ccc(-c2sc(NC(C)(C)C3CCOCC3)nc2C)cc1S(=O)(=O)Nc1cncnc1C [Compound S-23] | 0.138 |  | 0.049 | 0.796 µM | 100 |  | 100 | 66.1 |  |  |  |  |  |  |  |  |  |  | 
COc1ccc(-c2sc(NCC3CCOCC3)nc2C)cc1S(=O)(=O)Nc1ccc(F)cc1Cl [Compound S-77] |  | 0.826 |  |  | 66 |  |  |  |  |  |  |  |  |  |  |  |  |  | 
COc1ccc(-c2sc(NC(C)(C)c3ccncc3)nc2C)cc1S(=O)(=O)Nc1c(C)cccc1F [Compound S-37] | 0.0001 |  | 0.0001 | 0.0005 µM | 4.39 |  | 21.8 | 3.88 |  |  |  |  |  |  |  |  |  |  | 
COc1ccc(-c2sc(NC(C)(C)c3ncccn3)nc2C)cc1S(=O)(=O)Nc1c(C)cccc1F [Compound S-34] | 0.001 |  | 0.0018 | 0.0068 µM | 19.4 |  | 100 | 22.1 |  |  |  |  |  |  |  |  |  |  | 
COc1ccc(-c2oc(NC(C)(C)c3ccccn3)nc2C)cc1S(=O)(=O)Nc1ccncc1C [Compound S-47] | 0.0096 |  | 0.0012 | 0.0276 µM | 49.5 |  | 21.1 | 49.1 |  |  |  |  |  |  |  |  |  |  | 
